In data set [1] the target is T1, TbKKT19 (Trypanosoma brucei, UniProt Q382T9).
T1 construct: gene Tb11.01.4250; recombinant His-tagged, full-length TbKKT19
T1 sequence (Q382T9 1-484): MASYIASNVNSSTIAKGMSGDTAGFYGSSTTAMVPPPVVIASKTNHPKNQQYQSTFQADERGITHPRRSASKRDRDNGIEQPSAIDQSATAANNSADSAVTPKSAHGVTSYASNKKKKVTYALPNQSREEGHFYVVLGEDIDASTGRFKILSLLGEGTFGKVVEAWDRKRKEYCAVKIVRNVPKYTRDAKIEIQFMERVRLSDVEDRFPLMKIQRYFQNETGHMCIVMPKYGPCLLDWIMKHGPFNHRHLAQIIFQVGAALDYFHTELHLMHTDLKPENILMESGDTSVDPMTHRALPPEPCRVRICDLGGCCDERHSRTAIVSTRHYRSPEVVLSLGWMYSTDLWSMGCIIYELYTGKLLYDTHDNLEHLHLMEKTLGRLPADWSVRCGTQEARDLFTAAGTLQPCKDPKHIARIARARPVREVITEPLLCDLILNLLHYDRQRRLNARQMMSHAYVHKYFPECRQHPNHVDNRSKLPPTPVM
Briefly: ADP Hunter Plus kinase assay, 10-point IC50, with technology counterscreen; repurchased and reconfirmed. Format: biochemical.

Data set [2] concerns the target T1, TbKKT19. Briefly: ADP Hunter Plus kinase assay, KKL peptide, […] ATP; potency shift at […] ATP. The format is biochemical.
Substrate in the data set “purified protein”: Nc1ncnc2c1ncn2[C@@H]1O[C@H](COP(=O)(O)OP(=O)(O)OP(=O)(O)O)[C@@H](O)[C@H]1O
In words: purified protein. The format is biochemical, Trypanosoma brucei. Particulars: ATP binding site.

With `CCN(Cc1ccc(/C=C2/C(=O)Nc3ccccc32)o1)S(C)(=O)=O` [compound 1], at TbKKT19 [1], the IC50 – broadly, the concentration that inhibits the measured activity by half – turned out to be 18.9 µM.

As for `O=C(Nc1ccc2cn[nH]c2c1)c1c(Cl)cccc1Cl` [compound 2], the IC50 on TbKKT19 [1] is 14.9 µM.

Regarding `COc1cc(O)c2c(c1)[C@H]1O[C@@H]1C[C@H](O)[C@H](O)C(=O)/C=C\C[C@H](C)OC2=O` [hypothemycin], the 50% inhibitory concentration (IC50) on TbKKT19 [2] worked out at 0.065 µM.

For `CN[C@@H]1C[C@H]2O[C@@](C)([C@@H]1OC)n1c3ccccc3c3c4c(c5c6ccccc6n2c5c31)C(=O)NC4` [staurosporine], the IC50 on TbKKT19 [2] was determined as 0.288 µM.

B1: TbKKT19 (Trypanosoma brucei brucei TREU927) (protein)
chain: T1 sequence (Q382T9 1-484)
notes: recombinant His-tagged, full-length TbKKT19
With B1, the Km (commonly the concentration of substrate that gives half-maximal velocity) in “purified protein” was 102 µM.

The values are drawn from PMC6544269, “Identification of inhibitors of an unconventional Trypanosoma brucei kinetochore kinase” (PLoS ONE, 2019).
